Nine molecules from patent US6800630B2, “Pyrimidine derivatives having antitumor effect” (Shionogi & Co., Ltd., priority 2000, dated 2004) can be followed below.

Holding throughout (format): cell-based
For one test, the system named is human colon cancer HT29. Kind of test: In vitro cell growth inhibition test, MTT assay. The conditions noted are these: MTT assay 4 days after compound addition. From the text:
(§1) Test Example 2 In vitro cell growth inhibition test Cells and MTT assay
(§2) Human squamous lung cancer […], human squamous lung cancer Ma44, human lung adenocarcinoma A549, human colon cancer HT29 and human pancreas cancer PANC-1 were used.
(Formazan colour is commonly taken as a measure of viable cells.)

For test [1], the system named is human squamous lung cancer Ma44. Description: In vitro cell growth inhibition test, MTT assay. The settings on record: MTT assay 4 days after compound addition.
Text: as §1, §2

Test [2] relates to human lung adenocarcinoma A549. Description: In vitro cell growth inhibition test, MTT assay. The conditions noted are these: MTT assay 4 days after compound addition.
Text: as §1, §2

Test [3] concerns human pancreas cancer PANC-1. Kind of test: In vitro cell growth inhibition test, MTT assay. The conditions noted are these: MTT assay 4 days after compound addition.
Text: as §1, §2

The subject of test [4] is DT-C cells (pGV-P transfected v-ki-ras-transformed NIH373 cells). Kind of test: Luciferase activity of DT-C control cells (IC50-C), index of non-specific transcription-inhibitory effect or cytotoxicity. The settings on record: tested concentration nearest to 50% inhibition in DT-C cells. From the text: (§3) Test Example 1 Inhibitory effect against cellular signaling derived from Ras oncogene products
(§4) Based on the reporter plasmid (pGV-P (Toyo Ink, Japan)), in which luciferase gene was ligated to SV40-derived minimal promoter, we constructed a plasmid designated pRRE3-luc by inserting 3 copies of chemically synthesized oligonucleotides (Sequence: CAGGATATGACTCT, derived from mouse NVL-3 (M. A. Reddy et al.(1992)Mol. Endocrinol., 6, 1051)) into upstream of the promoter. v-ki-ras-transformed NIH373 cells (DT cells, provided by Dr. Makoto Noda (Kyoto Univ., School of medicine)) were transfected with this plasmid by liposome-mediated transfection and transfected cell lines stably incorporated and maintained each plasmid were obtained. We named pGV-P and pRRE3-transfected cell line as DT-C and DT-R, respectively and used in the assay described below.
(§5) i) All the cell lines were cultured in Dulbecco's Modified Essential Medium (DMEM: 10% Fetal Calf Serum(FCS: Hyclone, USA)) including […] kanamycin (Meiji Seika, Japan) in humidified incubator under condition of 5% CO2 at 37° C.
(§6) ii) DT-C and DT-R cells were seeded at 2500 cells/well into flat-bottom 96 well multiplate (Sumitomo bakelite) and incubated for 24 hours.
(§7) iii) Test compounds were prepared as 1 mg/ml DMSO solution.
(§8) iv) The solution of test compounds were added to the culture. Tested compounds are used at the concentration from […] to 0.51 ng/ml with 3-fold dilution.
(§9) v) After 24 hours, the culture supernatant was completely aspirated and 20 μl of cell-lysing solution (PGC-50 (Toyo Ink, Japan)) was added before cells were dried up. In order to lyse the cells completely, multiwell plates were left at room temperature for 10 to 30 min. The plates were wrapped up and stored at −20° C. till the day of measurement.
(§10) i) Melt the samples by putting 96 well multiplate at 37° C. and add 90 μl/well 25 mM Tris (pH 7.5).
(§11) ii) Transfer 50 μl of the sample (110 μl) to the 96 well microplate (Microlite 1 (Dynatech)) for measurement.
(§12) iii) Measure the samples by the luminometer, LUMINOUS CT9000D (Dia-Yatron, Japan). We used Pickagene luminescence kit PGL2000 or LT2.0 (Toyo Ink, Japan) as enzyme substrates for luminescence measurement (50 μl/well).
(§13) i) The luciferase activity of DT-C cells and DT-R cells were plotted in the graph where the relative activity and the compound concentration were expressed as Y-axis and X-axis, respectively. We judged by the degree of dissociation between the activities of DT-C cells and DT-R cells as an index.
b) Among the points of concentration tested, the concentration which is the nearest to 50% inhibition concentration at DT-C cells (IC50-C), was shown as an index of non-specific transcription-inhibitory effect or of cytotoxicity. In case of positive compounds, 50% inhibition concentration in DT-C cells which was higher than the active concentration was expressed as IC50-C.

Test [5] relates to signal derived from Ras oncogene products (DT-R cells, pRRE3-luc transfected v-ki-ras-transformed NIH373 cells). Description: Inhibitory effect against cellular signaling derived from Ras oncogene products: RRE-luciferase reporter, Minimal Active Concentration (MAC) at which DT-C and DT-R activities dissociate. The conditions noted are these: minimal concentration at which luciferase activities of DT-C and DT-R cells dissociated.
Text: as §3, §4, §5, §6, §7, §8, §9, §10, §11, §12, §13
ii) Concretely, efficacy of the compound was expressed by two values described below.
a) Among the points of concentration tested, the minimal concentration (Minimal Active Concentration: MAC), at which the activities of DT-C cells and DT-R cells dissociated, was shown as an index of efficacy of the compound.
On the technique in general: In a reporter assay the amount or activity of a reporter protein is the signal.

Test [6] concerns human squamous lung cancer RERF-RC-AI. Kind of test: In vitro cell growth inhibition test, MTT assay. The settings on record: MTT assay 4 days after compound addition.
Text: as §1, §2

Molecules are shown by their SMILES. Values after ≈ are worked out from the molar mass of the structure shown.

On to `CCNC(=Nc1nc(C)ncc1CSc1nnc(-c2ccc(N)cc2)o1)SC` [Compound A-11], for which, in the test with human colon cancer HT29, the “IC50 HT-29” value was found to be 0.0067 µg/mL (≈ 0.0161 µM). Further, in test [1], the “IC50 Ma44” value was 0.077 µg/mL (≈ 0.185 µM). In addition, the “IC50 A549” value in test [2] worked out at 0.014 µg/mL (≈ 0.0337 µM). The “IC50 PANC-1” value in test [3] is 0.0064 µg/mL (≈ 0.0154 µM). Besides, the “IC50 (IC50-C)” value in test [4] was greater than 10 µg/mL. In addition, the “MAC (Minimal Active Concentration)” value in test [5] is 0.0412 µg/mL.
For the molecule `CCSC(=Nc1nc(C)ncc1CSc1nnc(-c2ccc(N)cc2)o1)NC` [Compound A-13], the “IC50 HT-29” value in the test on human colon cancer HT29 worked out at 0.0089 µg/mL (≈ 0.0214 µM). In addition, the “IC50 Ma44” value in test [1] was 0.03 µg/mL (≈ 0.0722 µM). In addition, in test [2], the “IC50 A549” value was 0.015 µg/mL (≈ 0.0361 µM). For the same molecule, in test [3], the “IC50 PANC-1” value was 0.0077 µg/mL (≈ 0.0185 µM). The “MAC (Minimal Active Concentration)” value in test [5] stood at 0.0137 µg/mL.
As to `CCNC(=Nc1nc(C)ncc1CSc1nnc(-c2ccc(N)cc2)o1)SCC` [Compound A-14], the “IC50 RERF-LC-AI” value in test [6] worked out at 0.012 µg/mL (≈ 0.0279 µM). Besides, the “IC50 HT-29” value in the test on human colon cancer HT29 was determined as 0.011 µg/mL (≈ 0.0256 µM). Moreover, the “IC50 Ma44” value in test [1] stood at 0.032 µg/mL (≈ 0.0745 µM). Further, in test [2], the “IC50 A549” value turned out to be 0.012 µg/mL (≈ 0.0279 µM). Also, in test [3], the “IC50 PANC-1” value came out at 0.0098 µg/mL (≈ 0.0228 µM). The “IC50 (IC50-C)” value in test [4] was greater than 10 µg/mL. Besides, in test [5], the “MAC (Minimal Active Concentration)” value turned out to be 0.0412 µg/mL.
Take `CCNC(=Nc1nc(C)ncc1CSc1nnc(-c2ccc([N+](=O)[O-])cc2)o1)OC` [Compound A-32]: the “IC50 RERF-LC-AI” value in test [6] is 0.031 µg/mL (≈ 0.0722 µM). In addition, the “IC50 HT-29” value with human colon cancer HT29 is 0.031 µg/mL (≈ 0.0722 µM). Also, the “IC50 Ma44” value in test [1] stood at 0.042 µg/mL (≈ 0.0978 µM). Also, the “IC50 A549” value in test [2] is 0.064 µg/mL (≈ 0.149 µM). Also, the “IC50 PANC-1” value in test [3] stood at 0.034 µg/mL (≈ 0.0792 µM). For the same molecule, the “IC50 (IC50-C)” value in test [4] was greater than 10 µg/mL. For the same molecule, in test [5], the “MAC (Minimal Active Concentration)” value is 0.123 µg/mL.
Turning to `CCNC(=Nc1nc(C)ncc1CSc1nnc(-c2ccc([N+](=O)[O-])cc2)o1)OCC` [Compound A-33], the “IC50 RERF-LC-AI” value in test [6] is 0.0093 µg/mL (≈ 0.021 µM). In the test on human colon cancer HT29, the “IC50 HT-29” value was 0.0066 µg/mL (≈ 0.0149 µM). In addition, the “IC50 Ma44” value in test [1] was found to be 0.0091 µg/mL (≈ 0.0205 µM). The “IC50 A549” value in test [2] worked out at 0.023 µg/mL (≈ 0.0519 µM). Moreover, the “IC50 PANC-1” value in test [3] stood at 0.0086 µg/mL (≈ 0.0194 µM). In addition, the “IC50 (IC50-C)” value in test [4] was greater than 10 µg/mL. Moreover, in test [5], the “MAC (Minimal Active Concentration)” value came to 0.0412 µg/mL.
`CNC(=Nc1nc(C)ncc1CSc1nnc(-c2ccc([N+](=O)[O-])cc2)o1)OC(C)C` [Compound A-34]: the “IC50 RERF-LC-AI” value in test [6] came to 0.013 µg/mL (≈ 0.0293 µM). In the test with human colon cancer HT29, the “IC50 HT-29” value stood at 0.0046 µg/mL (≈ 0.0104 µM). Moreover, the “IC50 Ma44” value in test [1] came out at 0.0091 µg/mL (≈ 0.0205 µM). For the same molecule, in test [2], the “IC50 A549” value turned out to be 0.021 µg/mL (≈ 0.0474 µM). In addition, in test [3], the “IC50 PANC-1” value came to 0.0075 µg/mL (≈ 0.0169 µM). Further, the “IC50 (IC50-C)” value in test [4] was greater than 10 µg/mL. Further, the “MAC (Minimal Active Concentration)” value in test [5] turned out to be 0.0137 µg/mL.
For `CCNC(=Nc1nc(C)ncc1CSc1nnc(-c2ccc([N+](=O)[O-])cc2)o1)OC(C)C` [Compound A-35], the “IC50 RERF-LC-AI” value in test [6] turned out to be 0.0067 µg/mL (≈ 0.0146 µM). Moreover, the “IC50 HT-29” value with human colon cancer HT29 worked out at 0.0033 µg/mL (≈ 0.00721 µM). The “IC50 Ma44” value in test [1] amounted to 0.0069 µg/mL (≈ 0.0151 µM). Further, the “IC50 A549” value in test [2] turned out to be 0.011 µg/mL (≈ 0.024 µM). In test [3], the “IC50 PANC-1” value came to 0.0054 µg/mL (≈ 0.0118 µM). Besides, the “IC50 (IC50-C)” value in test [4] is greater than 10 µg/mL. Moreover, the “MAC (Minimal Active Concentration)” value in test [5] is 0.0412 µg/mL.
Turning to `CNC(=Nc1nc(C)ncc1CSc1nnc(-c2ccc([N+](=O)[O-])cc2)o1)NCC(F)(F)F` [Compound C-1, reference compound], the “IC50 HT-29” value in the test with human colon cancer HT29 turned out to be 0.0066 µg/mL (≈ 0.0137 µM). For the same molecule, in test [1], the “IC50 Ma44” value stood at 0.011 µg/mL (≈ 0.0228 µM). In test [2], the “IC50 A549” value was 0.016 µg/mL (≈ 0.0332 µM). Further, the “IC50 PANC-1” value in test [3] is 0.0064 µg/mL (≈ 0.0133 µM). Further, the “MAC (Minimal Active Concentration)” value in test [5] amounted to 0.0412 µg/mL.
Regarding `C#CCNC(=Nc1nc(C)ncc1CSc1nnc(-c2ccc([N+](=O)[O-])cc2)o1)NC` [Compound C-2, reference compound], the “IC50 HT-29” value in the test on human colon cancer HT29 was found to be 0.002 µg/mL (≈ 0.00456 µM). For the same molecule, the “IC50 Ma44” value in test [1] amounted to 0.0034 µg/mL (≈ 0.00775 µM). The “IC50 A549” value in test [2] turned out to be 0.0044 µg/mL (≈ 0.01 µM). Also, in test [3], the “IC50 PANC-1” value worked out at 0.002 µg/mL (≈ 0.00456 µM). The “IC50 (IC50-C)” value in test [4] was greater than 10 µg/mL. Further, the “MAC (Minimal Active Concentration)” value in test [5] came to 0.0137 µg/mL.
